Source: paper PMC9954146, “Anti-Leukaemic Activity of Rilpivirine Is Mediated by Aurora A Kinase Inhibition” (Cancers, 2023)

How the values were obtained:
Test in all cases: Kinase panel
Format in all cases: biochemical
Conditions in all cases: read-out: % Residual Activity
PRK1(h) = target: T1, PRK1(h) (Homo sapiens, UniProt Q16512)
T1 construct: purchased Eurofins (KinaseProfiler)
In short: (§1)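 Selectivity panel (kinome-wide), rilpivirine as test compound. Readout: radiolabel incorporation. ATP = Km of the respective kinase. Ki calculated from IC50 (Cheng–Prusoff).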

MARK3(h) = target: T2, MARK3(h) (Homo sapiens, UniProt P27448)
T2 construct: purchased Eurofins (KinaseProfiler)
In short: as §1

FGFR4(h) = target: T3, FGFR4(h) (Homo sapiens, UniProt P22455)
T3 construct: purchased Eurofins (KinaseProfiler)
In short: as §1

TAO2(h) = target: T4, TAO2(h) (Homo sapiens, UniProt Q9UL54)
T4 construct: purchased Eurofins (KinaseProfiler)
In short: as §1

LATS2(h) = target: T5, LATS2(h) (Homo sapiens, UniProt Q9NRM7)
T5 construct: purchased Eurofins (KinaseProfiler)
In short: as §1

Tie2(Y897S)(h) = target: T6, Tie2(Y897S)(h) (Homo sapiens, UniProt Q02763, Y897S)
T6 construct: purchased Eurofins (KinaseProfiler)
In short: as §1

Fms(Y969C)(h) = target: T7, Fms(Y969C)(h) (Homo sapiens, UniProt P07333, Y969C)
T7 construct: purchased Eurofins (KinaseProfiler)
In short: as §1

DCAMKL3(h) = target: T8, DCAMKL3(h) (Homo sapiens, UniProt Q9C098)
T8 construct: purchased Eurofins (KinaseProfiler)
T8 sequence (Q9C098 whole entry): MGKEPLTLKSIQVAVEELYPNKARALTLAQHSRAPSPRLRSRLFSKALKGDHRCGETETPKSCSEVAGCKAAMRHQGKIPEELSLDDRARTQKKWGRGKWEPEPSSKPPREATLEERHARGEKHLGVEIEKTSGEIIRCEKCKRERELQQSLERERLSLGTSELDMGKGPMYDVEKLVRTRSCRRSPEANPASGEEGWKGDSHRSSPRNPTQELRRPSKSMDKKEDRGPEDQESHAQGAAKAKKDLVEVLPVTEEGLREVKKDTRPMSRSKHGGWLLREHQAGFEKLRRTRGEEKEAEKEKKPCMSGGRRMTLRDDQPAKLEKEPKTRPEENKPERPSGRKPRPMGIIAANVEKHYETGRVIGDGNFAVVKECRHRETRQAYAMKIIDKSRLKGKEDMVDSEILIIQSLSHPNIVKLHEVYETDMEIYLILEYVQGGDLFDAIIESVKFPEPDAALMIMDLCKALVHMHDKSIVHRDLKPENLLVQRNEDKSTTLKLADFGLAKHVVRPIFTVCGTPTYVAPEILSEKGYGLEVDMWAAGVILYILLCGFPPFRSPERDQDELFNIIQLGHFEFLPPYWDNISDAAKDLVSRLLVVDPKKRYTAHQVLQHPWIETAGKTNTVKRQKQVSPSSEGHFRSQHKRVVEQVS
In short: as §1

CDK16/cyclinY(h) = target: T9, CDK16/cyclinY(h) (Homo sapiens, UniProt Q00536)
T9 construct: purchased Eurofins (KinaseProfiler)
In short: as §1

Rsk4(h) = target: T10, Rsk4(h) (Homo sapiens, UniProt Q9UK32)
T10 construct: purchased Eurofins (KinaseProfiler)
In short: as §1

NLK(h) = target: T11, NLK(h) (Homo sapiens, UniProt Q9UBE8)
T11 construct: purchased Eurofins (KinaseProfiler)
In short: as §1

NEK9(h) = target: T12, NEK9(h) (Homo sapiens, UniProt Q8TD19)
T12 construct: purchased Eurofins (KinaseProfiler)
In short: as §1

FGFR1(V561M)(h) = target: T13, FGFR1(V561M)(h) (Homo sapiens, UniProt P11362, V561M)
T13 construct: purchased Eurofins (KinaseProfiler)
T13 sequence (P11362 22-822 V561M): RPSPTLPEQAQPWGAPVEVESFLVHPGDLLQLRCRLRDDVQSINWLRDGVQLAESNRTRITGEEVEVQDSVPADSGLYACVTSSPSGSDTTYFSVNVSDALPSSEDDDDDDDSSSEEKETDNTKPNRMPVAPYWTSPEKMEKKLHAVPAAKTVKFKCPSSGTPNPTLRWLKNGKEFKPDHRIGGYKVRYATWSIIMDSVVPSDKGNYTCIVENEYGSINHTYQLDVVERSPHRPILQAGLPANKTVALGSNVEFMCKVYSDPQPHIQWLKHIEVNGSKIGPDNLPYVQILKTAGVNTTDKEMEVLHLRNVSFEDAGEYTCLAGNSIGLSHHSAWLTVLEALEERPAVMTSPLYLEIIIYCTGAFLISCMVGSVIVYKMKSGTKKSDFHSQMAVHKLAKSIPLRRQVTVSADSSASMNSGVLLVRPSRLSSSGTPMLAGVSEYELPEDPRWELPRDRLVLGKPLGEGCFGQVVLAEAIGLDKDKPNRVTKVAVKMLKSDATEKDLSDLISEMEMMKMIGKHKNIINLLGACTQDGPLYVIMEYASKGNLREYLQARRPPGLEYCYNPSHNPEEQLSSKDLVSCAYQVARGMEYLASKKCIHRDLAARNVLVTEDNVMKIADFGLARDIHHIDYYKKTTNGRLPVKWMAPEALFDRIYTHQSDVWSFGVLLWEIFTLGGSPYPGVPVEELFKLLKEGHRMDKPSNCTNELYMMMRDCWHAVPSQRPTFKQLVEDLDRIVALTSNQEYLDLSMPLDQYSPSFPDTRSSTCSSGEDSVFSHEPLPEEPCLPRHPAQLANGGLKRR
In short: as §1

Syk(h) = target: T14, Syk(h) (Homo sapiens, UniProt P43405)
T14 construct: purchased Eurofins (KinaseProfiler)
In short: as §1

PKCε(h) = target: T15, PKCε(h) (Homo sapiens, UniProt Q02156)
T15 construct: purchased Eurofins (KinaseProfiler)
In short: as §1

PAK5(h) = target: T16, PAK5(h) (Homo sapiens, UniProt Q9P286)
T16 construct: purchased Eurofins (KinaseProfiler)
In short: as §1

Abl (Q252H) (h) = target: T17, Abl (Q252H) (h) (Homo sapiens, UniProt P00519, Q252H)
T17 construct: purchased Eurofins (KinaseProfiler)
In short: as §1

CK2α1(h) = target: T18, CK2α1(h) (Homo sapiens, UniProt P68400)
T18 construct: purchased Eurofins (KinaseProfiler)
T18 sequence (P68400 whole entry): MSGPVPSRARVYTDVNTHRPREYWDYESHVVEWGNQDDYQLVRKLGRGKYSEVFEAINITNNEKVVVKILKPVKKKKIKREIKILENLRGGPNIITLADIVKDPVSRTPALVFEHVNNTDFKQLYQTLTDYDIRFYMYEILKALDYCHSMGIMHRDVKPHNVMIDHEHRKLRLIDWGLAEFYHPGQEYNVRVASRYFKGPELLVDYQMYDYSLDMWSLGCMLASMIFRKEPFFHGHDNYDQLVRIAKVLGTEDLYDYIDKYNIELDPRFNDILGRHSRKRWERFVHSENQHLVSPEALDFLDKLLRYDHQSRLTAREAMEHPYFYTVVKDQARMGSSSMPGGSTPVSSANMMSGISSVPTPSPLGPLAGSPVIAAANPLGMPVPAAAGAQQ
In short: as §1

Arg(m) = target: T19, Arg(m) (Mus musculus, UniProt Q4JIM5)
T19 construct: purchased Eurofins (KinaseProfiler)
In short: as §1

CDKL3(h) = target: T20, CDKL3(h) (Homo sapiens, UniProt Q8IVW4)
T20 construct: purchased Eurofins (KinaseProfiler)
In short: as §1

ROCK-II(r) = target: T21, ROCK-II(r) (Rattus norvegicus, UniProt Q62868)
T21 construct: purchased Eurofins (KinaseProfiler)
In short: as §1

PTK5(h) = target: T22, PTK5(h) (Homo sapiens, UniProt P42685)
T22 construct: purchased Eurofins (KinaseProfiler)
T22 sequence (P42685 whole entry): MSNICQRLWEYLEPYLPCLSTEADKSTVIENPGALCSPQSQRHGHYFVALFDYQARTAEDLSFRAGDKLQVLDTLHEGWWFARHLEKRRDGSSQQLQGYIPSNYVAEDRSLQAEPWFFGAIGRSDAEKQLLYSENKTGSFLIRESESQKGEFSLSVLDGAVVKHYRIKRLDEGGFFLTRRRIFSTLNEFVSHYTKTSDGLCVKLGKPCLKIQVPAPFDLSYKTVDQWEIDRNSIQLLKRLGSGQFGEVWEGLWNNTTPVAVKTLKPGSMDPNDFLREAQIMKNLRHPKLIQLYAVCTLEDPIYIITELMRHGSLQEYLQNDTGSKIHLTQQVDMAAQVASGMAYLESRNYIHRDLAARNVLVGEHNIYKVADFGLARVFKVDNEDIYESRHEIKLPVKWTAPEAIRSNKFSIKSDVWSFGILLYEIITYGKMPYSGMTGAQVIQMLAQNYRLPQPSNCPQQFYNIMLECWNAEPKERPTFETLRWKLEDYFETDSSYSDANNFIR
In short: as §1

Hck(h) activated = target: T23, Hck(h) activated (Homo sapiens, UniProt P08631)
T23 construct: purchased Eurofins (KinaseProfiler)
In short: as §1

TNIK(h) = target: T24, TNIK(h) (Homo sapiens, UniProt Q9UKE5)
T24 construct: purchased Eurofins (KinaseProfiler)
In short: as §1

IGF-1R(h), activated = target: T25, IGF-1R(h), activated (Homo sapiens, UniProt P08069)
T25 construct: purchased Eurofins (KinaseProfiler)
In short: as §1

PKG1α(h) = target: T26, PKG1α(h) (Homo sapiens, UniProt Q13976)
T26 construct: purchased Eurofins (KinaseProfiler)
In short: as §1

AMPKα2(h) = target: T27, AMPKα2(h) (Homo sapiens, UniProt P54646)
T27 construct: purchased Eurofins (KinaseProfiler)
In short: as §1

MEKK3(h) = target: T28, MEKK3(h) (Homo sapiens, UniProt Q99759)
T28 construct: purchased Eurofins (KinaseProfiler)
In short: as §1

DAPK2(h) = target: T29, DAPK2(h) (Homo sapiens, UniProt Q9UIK4)
T29 construct: purchased Eurofins (KinaseProfiler)
In short: as §1

MKK6(h) = target: T30, MKK6(h) (Homo sapiens, UniProt P52564)
T30 construct: purchased Eurofins (KinaseProfiler)
T30 sequence (P52564 whole entry): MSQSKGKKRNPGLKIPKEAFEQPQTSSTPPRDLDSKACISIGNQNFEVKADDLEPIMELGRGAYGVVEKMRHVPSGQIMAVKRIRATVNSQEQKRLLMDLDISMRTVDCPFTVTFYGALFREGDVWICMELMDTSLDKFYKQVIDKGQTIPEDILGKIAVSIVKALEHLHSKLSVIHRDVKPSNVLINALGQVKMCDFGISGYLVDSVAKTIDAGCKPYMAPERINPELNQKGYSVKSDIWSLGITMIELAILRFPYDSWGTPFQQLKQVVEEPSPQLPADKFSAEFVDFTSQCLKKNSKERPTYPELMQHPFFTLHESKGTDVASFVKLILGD
In short: as §1

TTK(h) = target: T31, TTK(h) (Homo sapiens, UniProt P33981)
T31 construct: purchased Eurofins (KinaseProfiler)
In short: as §1

Ros(h) = target: T32, Ros(h) (Homo sapiens, UniProt P08922)
T32 construct: purchased Eurofins (KinaseProfiler)
In short: as §1

AMPKα1(h) = target: T33, AMPKα1(h) (Homo sapiens, UniProt Q13131)
T33 construct: purchased Eurofins (KinaseProfiler)
In short: as §1

PKCγ(h) = target: T34, PKCγ(h) (Homo sapiens, UniProt P05129)
T34 construct: purchased Eurofins (KinaseProfiler)
In short: as §1

TSSK4(h) = target: T35, TSSK4(h) (Homo sapiens, UniProt Q6SA08)
T35 construct: purchased Eurofins (KinaseProfiler)
In short: as §1

[1] = target: PI3 Kinase (p110a(E542K)/p85a)(h) (Homo sapiens, UniProt P42336, E542K)
In short: as §1

Flt4(h) = target: T36, Flt4(h) (Homo sapiens, UniProt P35916)
T36 construct: purchased Eurofins (KinaseProfiler)
T36 sequence (P35916 25-1363): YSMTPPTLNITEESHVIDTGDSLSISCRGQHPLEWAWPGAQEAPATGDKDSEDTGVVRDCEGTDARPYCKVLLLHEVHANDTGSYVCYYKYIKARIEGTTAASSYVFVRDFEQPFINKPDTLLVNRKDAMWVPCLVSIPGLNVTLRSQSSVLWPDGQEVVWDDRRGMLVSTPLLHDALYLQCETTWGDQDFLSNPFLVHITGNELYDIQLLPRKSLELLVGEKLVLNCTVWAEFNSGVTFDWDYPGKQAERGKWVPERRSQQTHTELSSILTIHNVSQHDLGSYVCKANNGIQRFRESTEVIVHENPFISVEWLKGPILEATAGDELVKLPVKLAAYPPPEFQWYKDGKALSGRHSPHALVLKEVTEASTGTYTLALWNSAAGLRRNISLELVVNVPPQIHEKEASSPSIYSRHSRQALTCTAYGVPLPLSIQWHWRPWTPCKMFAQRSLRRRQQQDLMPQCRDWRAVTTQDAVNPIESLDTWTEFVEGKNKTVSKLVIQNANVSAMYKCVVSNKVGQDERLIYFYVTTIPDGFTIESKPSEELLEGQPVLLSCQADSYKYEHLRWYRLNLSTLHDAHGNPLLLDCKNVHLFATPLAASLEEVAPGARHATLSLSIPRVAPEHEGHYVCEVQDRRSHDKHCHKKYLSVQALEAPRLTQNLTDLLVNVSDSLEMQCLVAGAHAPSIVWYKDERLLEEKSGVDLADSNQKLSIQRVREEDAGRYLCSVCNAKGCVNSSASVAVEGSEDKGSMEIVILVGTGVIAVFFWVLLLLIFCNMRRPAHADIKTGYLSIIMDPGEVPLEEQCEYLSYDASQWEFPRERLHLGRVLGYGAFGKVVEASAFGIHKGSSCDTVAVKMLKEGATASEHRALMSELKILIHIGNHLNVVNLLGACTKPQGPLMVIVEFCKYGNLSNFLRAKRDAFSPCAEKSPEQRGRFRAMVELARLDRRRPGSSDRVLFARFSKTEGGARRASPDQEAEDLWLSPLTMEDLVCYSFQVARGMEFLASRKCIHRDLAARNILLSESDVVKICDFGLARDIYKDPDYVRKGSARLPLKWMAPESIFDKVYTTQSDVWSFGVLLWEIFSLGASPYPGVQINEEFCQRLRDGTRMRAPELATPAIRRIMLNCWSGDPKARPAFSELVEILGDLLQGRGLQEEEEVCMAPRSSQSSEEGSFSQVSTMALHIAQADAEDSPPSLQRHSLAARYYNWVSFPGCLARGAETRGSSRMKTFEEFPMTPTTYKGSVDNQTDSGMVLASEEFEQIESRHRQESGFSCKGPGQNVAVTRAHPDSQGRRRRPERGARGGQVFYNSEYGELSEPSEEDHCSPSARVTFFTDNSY
In short: as §1

CK1γ3(h) = target: T37, CK1γ3(h) (Homo sapiens, UniProt Q9Y6M4)
T37 construct: purchased Eurofins (KinaseProfiler)
In short: as §1

T1 sequence (Q16512 whole entry): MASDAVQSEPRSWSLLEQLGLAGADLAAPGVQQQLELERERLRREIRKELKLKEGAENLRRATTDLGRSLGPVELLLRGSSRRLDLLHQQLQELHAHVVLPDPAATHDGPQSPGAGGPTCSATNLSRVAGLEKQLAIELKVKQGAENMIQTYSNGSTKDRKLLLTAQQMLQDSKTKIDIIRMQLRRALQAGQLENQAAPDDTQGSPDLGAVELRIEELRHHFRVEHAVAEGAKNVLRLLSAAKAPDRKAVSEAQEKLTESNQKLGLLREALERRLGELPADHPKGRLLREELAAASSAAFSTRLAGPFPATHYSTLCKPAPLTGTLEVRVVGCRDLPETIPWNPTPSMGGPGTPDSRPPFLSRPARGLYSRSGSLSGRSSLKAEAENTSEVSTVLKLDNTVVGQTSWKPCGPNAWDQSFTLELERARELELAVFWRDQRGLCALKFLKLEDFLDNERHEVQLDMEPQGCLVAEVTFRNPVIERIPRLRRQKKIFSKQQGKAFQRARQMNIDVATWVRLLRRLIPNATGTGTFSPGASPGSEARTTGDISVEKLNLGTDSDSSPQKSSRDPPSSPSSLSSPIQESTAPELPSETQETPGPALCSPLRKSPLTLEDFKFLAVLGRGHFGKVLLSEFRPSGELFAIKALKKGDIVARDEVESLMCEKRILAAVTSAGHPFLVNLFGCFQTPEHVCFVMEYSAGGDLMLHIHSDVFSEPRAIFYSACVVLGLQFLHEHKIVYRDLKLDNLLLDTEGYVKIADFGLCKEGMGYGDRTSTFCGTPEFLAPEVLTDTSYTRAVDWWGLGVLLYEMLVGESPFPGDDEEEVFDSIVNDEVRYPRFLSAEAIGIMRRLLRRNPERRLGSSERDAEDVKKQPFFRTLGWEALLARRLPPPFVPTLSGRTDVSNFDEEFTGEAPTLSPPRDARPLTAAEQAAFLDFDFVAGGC

For `Cc1cc(/C=C/C#N)cc(C)c1Nc1ccnc(Nc2ccc(C#N)cc2)n1` [rilpivirine, (E)-4-((4-((4-(2-cyanoethenyl)-2,6-dimethylphenyl)amino)pyrimidin-2-yl)amino)benzonitrile], the remaining activity at 1 µM (PRK1(h)) was 64%, the remaining activity at 1 µM (MARK3(h)) was 87% and the remaining activity at 1 µM (FGFR4(h)) was 121%. For the same compound, the remaining activity at 1 µM (TAO2(h)) was 59%, the remaining activity at 1 µM (LATS2(h)) was 80% and the remaining activity at 1 µM (Tie2(Y897S)(h)) was 96%. The remaining activity at 1 µM (Fms(Y969C)(h)) was 83%, the remaining activity at 1 µM (DCAMKL3(h)) was 95% and the remaining activity at 1 µM (CDK16/cyclinY(h)) was 96%. For the same compound, the remaining activity at 1 µM (Rsk4(h)) was 99%, the remaining activity at 1 µM (NLK(h)) was 64% and the remaining activity at 1 µM (NEK9(h)) was 90%. For the same compound, the remaining activity at 1 µM (FGFR1(V561M)(h)) was 97%, the remaining activity at 1 µM (Syk(h)) was 79% and the remaining activity at 1 µM (PKCε(h)) was 89%. For the same compound, the remaining activity at 1 µM (PAK5(h)) was 91%, the remaining activity at 1 µM (Abl (Q252H) (h)) was 94% and the remaining activity at 1 µM (CK2α1(h)) was 101%. For the same compound, the remaining activity at 1 µM (Arg(m)) was 48%, the remaining activity at 1 µM (CDKL3(h)) was 58% and the remaining activity at 1 µM (ROCK-II(r)) was 94%. The remaining activity at 1 µM (PTK5(h)) was 32%, the remaining activity at 1 µM (Hck(h) activated) was 63% and the remaining activity at 1 µM (TNIK(h)) was 50%. The remaining activity at 1 µM (IGF-1R(h), activated) was 99%, the remaining activity at 1 µM (PKG1α(h)) was 88% and the remaining activity at 1 µM (AMPKα2(h)) was 48%. It also gave a remaining activity at 1 µM (MEKK3(h)) of 72%, a remaining activity at 1 µM (DAPK2(h)) of 80% and a remaining activity at 1 µM (MKK6(h)) of 94%. For the same compound, the remaining activity at 1 µM (TTK(h)) was 71%, the remaining activity at 1 µM (Ros(h)) was 77% and the remaining activity at 1 µM (AMPKα1(h)) was 44%. It also gave a remaining activity at 1 µM (PKCγ(h)) of 103%, a remaining activity at 1 µM (TSSK4(h)) of 127% and a remaining activity at 1 µM [1] of 97%. The remaining activity at 1 µM (Flt4(h)) was 101% and the remaining activity at 1 µM (CK1γ3(h)) was 107%.
